# Test results reported in patent US6150361A, “Triazineone compounds for treating diseases due to sarcosystis, neospora and toxoplasma” (Bayer Corporation, priority 1998, dated 2000).
# Values joined by “and” are separate entries in the source; they are usually repeats but may differ in a detail not shown here. Identical values can stand only once. “Also recorded” adds a separate entry of the source.
# Assays:
# [1] = Passing of the blood-brain barrier in horses; type: in vivo; conditions: after oral Toltrazuril daily for 10 days
# Experimental: This experiment was conducted in order to determine whether triazineones such as Toltrazuril can pass the blood-brain barrier. Normal horses were divided into three groups of three horses per group. Group 1 horses received Toltrazuril administered orally as a 5% suspension at a dose level of 2.5 mg/Kg. Group 2 horses received Toltrazuril administered orally as a 5% suspension at a dose level of 5.0 mg/Kg. Group 3 horses received Toltrazuril administered orally as a 5% suspension at a dose level of 7.5 mg/Kg. The dosing was repeated daily for 10 days. Blood samples were drawn at 48, 96 and 240 hours and the concentration of Toltrazuril, Toltrazuril sulfoxide and Ponazuril in the serum was measured. Ten days after the start of the treatment (Day 10), a sample of cerebral spinal fluid was removed from each horse and the concentrations of Toltrazuril, Toltrazuril Sulfoxide and Ponazuril were again measured in these samples. The concentrations of Toltrazuril, Toltrazuril Sulfoxide and Ponazuril in the serum and cerebral spinal fluid are reported in TABLES 5a and 5b.
# [2] = test system: Bovine turbinate (BT) cells; type: cell-based; conditions: uninfected BT cells
# Experimental: (§1) Bovine turbinate (BT) cells were used for all in vitro studies. Cells were grown to confluency in 25 cm^2 flasks in RMPI 1640 media supplemented with 10% v/v fetal bovine serum (FBS), 100 Units penicillin (G/mL), […] streptomycin/mL and 5×10^-2 mM 2-mercpatoethanol. After cell confluence was obtained, cells were maintained in the same media with reduced FBS (2% v/v). Cell cultures were incubated at 37 C. in a humidified atmosphere containing 5% carbon dioxide and 95% air.
# The assay used to determine the effectiveness of Ponazuril was the Microtiter Monolayer Disruption Assay (MMDA). This assay was used to determine if the parasites or compound were toxic for BT cells. Flat bottomed 96-well microtiter plates were inoculated with BT cells and the resulting monolayers were used to determine the effects of Toltrazuril and Ponazuril on merozoite production as measured by CPE (plaque formation). […]
# [3] = test system: EPM-Infected Horses; test: Treatment of naturally occurring clinical EPM in horses with Ponazuril paste (clinical score); type: in vivo
# Experimental: The compound was formulated into a paste using Ponazuril as a 15% active ingredient (a.i.) as described in EXAMPLE 1. It was administered to horses already diagnosed with EPM once a day for 28 days at a dose rate between 2.5 mg/Kg and 10 mg/Kg.
# Naturally occurring clinical cases of EPM were well characterized by signalment and laboratory diagnosis. The diagnosis used for incorporation of EPM-positive horses into this trial was as follows: Confirmed asymmetrical neurological deficit as determined by a standardized neurological examination, to include radiography, indicative of EPM; Positive Western Blot for Sarcocystis neurona IgG; Red Blood Cell count below 500 cells/mL; CSF indices--Total Protein<90, IgG index>0.3. AQ quotient<2.2.
# Additional requirements were that the horses were not suffering from diseases other than EPM. Therefore, they had to meet the following criteria: Negative CSF (<1:4) for EHV-1; Normal serum values for Vitamin E (.2.0 μg/mL); Lack of seizure disorders; Lack of behavior disorders.
# Diagnosed horses were randomly assigned to groups. Group 1 horses received the paste formulation daily at a dose rate of 5 mg/Kg whereas Group 2 horses received the paste formulation daily at a dose rate of 10 mg/Kg. The treatment dose was based on body weight. The horses were evaluated for a period of 90 days (approximately 60 days after discontinuation of treatment) in order to determine that treatment was indeed effective. The response to treatment was scored using the following system:
# 1) 0=complete success-clinically normal with a negative CSF; 2) 1=Deficit just detected at a normal gait; 3) 2=Deficit easily detected and exaggerated by backing, turning, swaying, jaw loin pressure and neck extension; 4) 3=Deficit very prominent on walking, Facial turning, loin pressure or neck extension; 5) 4=Stumbling, tripping and falling down spontaneously; 6) 5=Recumbent, unable to rise. An improvement of one (1) unit in the score was considered a significant improvement.
# [4] = test system: Sarcocystis neurona; test: Microtiter Monolayer Disruption Assay (MMDA), Sarcocystis neurona; type: cell-based, Sarcocystis neurona strain SN3; conditions: BT cells
# Experimental: In order to determine the scope of protection provided by Ponazuril, in vitro testing was conducted. The following strains of parasites were evaluated for their sensitivity to this compound: Strain SN3 of Sarcocystis neurona; strain SF1 of Sarcocystis falcatula; strain RH of Toxoplasma gondii; and the NC-1 strain of Neospora caninum. […]
# as §1
# For growth of parasites, BT cell monolayers were infected with parasites and examined with an inverted microscope for the development of lesions (cytopathic effect, "CPE") or the presence of many extracellular merozoites. Once lesions were observed, or many extracellular parasites were present, the monolayer was scraped with the tip of a 5 mL pipette and 1 to 3 drops of the merozoite-containing fluid was transferred to two flasks of fresh BT cells. Merozoites of S. neurona and S. falcatula were passaged in this manner every 5 to 10 days while the tachyzoites of T. gondii and N. caninum were passaged every 3 to 4 days.
# The assay used to determine the effectiveness of Ponazuril was the Microtiter Monolayer Disruption Assay (MMDA). This assay was used to determine if the parasites or compound were toxic for BT cells. Flat bottomed 96-well microtiter plates were inoculated with BT cells and the resulting monolayers were used to determine the effects of Toltrazuril and Ponazuril on merozoite production as measured by CPE (plaque formation). Monolayers were inoculated with parasites (S. neurona or S. falcatula at a count of 50,000/well, T. gondii at a level of 10,000/well, and N. caninum at 20,000/well. All wells were inoculated with the test compound 2 hours after infection. Untreated and […] monolayer wells served as parasite controls and uninfected agent treated BT cells served as toxicity controls. Each treatment was examined in replicates of 6. Each well was visually monitored daily and the assay was stopped when 90-100% of the untreated merozoite infected cells had lysed (90-100% CPE). All wells of the plates were rinsed in Phosphate Buffered Saline (PBS) and fixed in 100% methanol for 5 minutes after which they were stained in crystal violet solution. […]
# [5] = individual horse, 5 mg/Kg paste daily for 28 days, score 0=complete success to 5=recumbent, listed as Toltrazuril Sulfone
# [6] = individual horse, 10 mg/Kg paste daily for 28 days, score 0=complete success to 5=recumbent, listed as Toltrazuril Sulfone
# [7] = sum of scores of group, 5 mg/Kg daily for 28 days
# [8] = sum of scores of group, 10 mg/Kg daily for 28 days
compound,measurement,setting,value
Cc1cc(-n2c(=O)[nH]c(=O)n(C)c2=O)ccc1Oc1ccc(S(=O)(=O)C(F)(F)F)cc1 [Ponazuril],crossing of the blood-brain barrier,[1],effectively cross the blood-brain barrier; also recorded: crosses this barrier more effectively than does Toltrazuril
same,toxicity to the BT cells,[2],not toxic
same,"improvement in total scores, Group 1 versus Group 2",[3]; 5 mg/Kg versus 10 mg/Kg,approximately equivalent
same,horses showing a significant improvement in clinical score by day 90,"[3]; 10 mg/Kg, treated for 28 days, improvement of 1 unit significant",100%
same,effectiveness for the active treatment of EPM in horses,[3]; either 5 mg/Kg or 10 mg/Kg,effective
same,"clinical score, Day 28, 5 mg/Kg Dose",[3]; [5],1 and 2 and 0 and 3
same,"clinical score, Day 90, 5 mg/Kg Dose",[3]; [5],2 and 1 and 0 and 3
same,"clinical score, Day 28, 10 mg/Kg Dose",[3]; [6],2 and 1 and 0
same,"clinical score, Day 90, 10 mg/Kg Dose",[3]; [6],1 and 0
same,"clinical score, Day 0, 5 mg/Kg Dose","[3]; individual horse, before treatment, 5 mg/Kg paste daily for 28 days, score 0=complete success to 5=recumbent, listed as Toltrazuril Sulfone",2 and 3
same,"clinical score, Day 0, 10 mg/Kg Dose","[3]; individual horse, before treatment, 10 mg/Kg paste daily for 28 days, score 0=complete success to 5=recumbent, listed as Toltrazuril Sulfone",4 and 3 and 2
same,"TOTAL clinical score, Day 28, 5 mg/Kg Dose",[3]; [7],13
same,"TOTAL clinical score, Day 90, 5 mg/Kg Dose",[3]; [7],6
same,"TOTAL clinical score, Day 28, 10 mg/Kg Dose",[3]; [8],15
same,"TOTAL clinical score, Day 90, 10 mg/Kg Dose",[3]; [8],4
same,"TOTAL clinical score, Day 0, 5 mg/Kg Dose","[3]; sum of scores of group, before treatment, 5 mg/Kg",17
same,"TOTAL clinical score, Day 0, 10 mg/Kg Dose","[3]; sum of scores of group, before treatment, 10 mg/Kg",19
same,inhibition at 0.1 µg/mL,"[4]; 0.1 μg/mL, read-out: Percent Inhibition of Cell Destruction, 0.1 μg/mL",0%
same,inhibition at 1 µg/mL,"[4]; 1 μg/mL, read-out: Percent Inhibition of Cell Destruction, 1 μg/mL",40%
same,inhibition at 5 µg/mL,"[4]; 5.0 μg/mL, read-out: Percent Inhibition of Cell Destruction, 5.0 μg/mL",90%
same,inhibition at 10 µg/mL,"[4]; 10 μg/mL, read-out: Percent Inhibition of Cell Destruction, 10 μg/mL",100%
